Here are results for 5 compounds from PMC6332334, “3-H-[1,2]Dithiole as a New Anti-Trypanosoma cruzi Chemotype: Biological and Mechanism of Action Studies” (Molecules, 2015).

Where two headings read alike, the source gives them in different places.

Experiment [1] deals with epimastigotes of T. cruzi (Tulahuen 2 strain). The experiment is described as follows: Anti-T. cruzi test in vitro (epimastigote growth inhibition). As to conditions: for IC50: Trypanosoma cruzi, epimastigotes, Tulahuen 2 strain, triplicate, read-out: IC50 against T. cruzi. It counts as cell-based, Trypanosoma cruzi. On the procedure:
(§1) To evaluate the anti-trypanosomal activity of the synthesized 3H-[1,2]dithioles we used T. cruzi, Tulahuen 2 strain (discrete typing unit, DTU, TcVI [18]) in the epimastigote form. […] To establish the selectivity of the compounds against the parasite, unspecific cytotoxicity against mammalian cells (J774.1 murine macrophages) was studied for the most relevant derivatives. The selectivity indexes (SI) were also determined (Table 1).
We used epimastigotes of the Tulahuen 2 strain (DTU, Tc VI) growing in an axenic milieu (BHI-Tryptose). Cells from a 5–7-day-old culture were inoculated in fresh culture milieu to give an initial concentration of 1 × 10^6 cells/mL. The absorbance at 600 nm of the cells in culture was measured every day. At day 5, the milieu was inoculated with different quantities of the compounds from a stock solution in DMSO (DMSO concentration in the culture milieu never exceeded 0.4%). The control was made in the presence of 0.4% DMSO and in the absence of compounds. […] At day 5, the absorbance of the culture was measured and related to the control. The IC50 value was taken as the concentration of drug needed to reduce the absorbance ratio to 50%.

Experiment [2] concerns J774.1 murine macrophages. The experiment is described as follows: Unspecific in vitro cytotoxicity of mammalian cells (MTT). It counts as cell-based. As to conditions: Mus musculus, 48 h exposure, read-out: IC50 against Macrophages. On the procedure: as §1
J774.1 murine macrophage cells (ATCC, Manassas, VA, USA) were grown in DMEM culture milieu containing 4 mM L-glutamine and supplemented with 10% heat-inactivated fetal calf serum. […] Afterwards, cells were exposed for 48 h to the compounds (25–400 μM) or vehicle for control (0.4% DMSO), and additional controls (cells in medium) were used in each test. Cell viability was then assessed by measuring the mitochondria-dependent reduction of MTT (3-(4,5-dimethylthiazol-2-yl)-2,5-diphenyltetrazolium bromide) to formazan. For this purpose, MTT in sterile PBS (0.2% glucose) pH 7.4 was added to the macrophages to achieve a final concentration of 0.1 mg/mL and the cells were incubated at 37 °C for 3 h. After removing the medium, formazan crystals were dissolved in 180 μL of DMSO and 20 μL of MTT buffer (0.1 M glycine, 0.1 M NaCl, 0.5 mM EDTA, pH 10.5) and the absorbance at 560 nm was measured. The IC50 was defined as the drug concentration at which 50% of the cells were viable, relative to the control (no drug added), and was determined by analysis using OriginLab8.5® sigmoidal regression (% of viable cells vs. logarithm of the compound concentration). Samples were performed in triplicate.

Experiment [3] addresses T1, Trypanosoma cruzi triosephosphate isomerase (TcTIM) (Trypanosoma cruzi, UniProt P52270).
T1 construct: made in house; host or cells: Escherichia coli
The experiment in a line: Inhibition of enzymatic activity of TcTIM. It counts as biochemical. As to conditions: for inhibition at 25 µM: percentage of enzymatic inhibition at 25 μM, read-out: TcTIM % Inhib25; for inhibition at 200 µM: percentage of enzymatic inhibition at 200 μM, read-out: TcTIM % Inhib200. On the procedure: In order to investigate if the 3H-[1,2]dithioles inhibit TcTIM, we initially tested the inhibitory capacity of the compounds at a concentration of 200 μM and then at 25 μM.
Expression and purification of protein: TcTIM was expressed in Escherichia coli and purified as described in the literature. After purification, the enzyme, dissolved in 100 mM triethanolamine, 10 mM EDTA and 1 mM dithiothreitol (pH 8), was precipitated with ammonium sulfate (75% saturation) and stored at 4 °C. Before use, extensive dialysis against 100 mM triethanolamine/10 mM EDTA (pH 7.4) was performed. Protein concentration was determined by absorbance at 280 nm (ε = 36,440 M^−1·cm^−1).
Enzymatic activity assays. Enzymatic activity was determined following the conversion of glyceraldehyde 3-phosphate into dihydroxyacetone phosphate. The decrease in absorbance at 340 nm was followed in a multicell Cary spectrophotometer at 25 °C. The reaction mixture (1 mL, pH 7.4) contained 100 mM triethanolamine, 10 mM EDTA, 0.2 mM NADH, 1 mM glyceraldehyde 3-phosphate, and 0.9 units of α-glycerol phosphate dehydrogenase. The reaction was initiated by addition of 5 ng/mL of the TcTIM.
For inactivation studies, TcTIM was incubated at a concentration of 5 mg/mL in a buffer containing 100 mM triethanolamine, 10 mM EDTA, pH 7.4 and 10% of DMSO at 36 °C. The mixture also contained the compounds at the indicated concentrations. Compounds were dissolved in DMSO. After 2 h, […] was withdrawn and added to 1 mL of reaction mixture for the activity assay. None of the molecules tested here affected the activity of α-glycerol phosphate dehydrogenase, the enzyme used for trapping the product.
The IC50 value was taken as the concentration of drug needed to reduce the enzymatic activity to 50%. The experiments were performed in triplicate.

For experiment [4], the target named is T2, cruzipain (Trypanosoma cruzi, UniProt P25779).
T2 construct: endogenous in cells; host or cells: T. cruzi epimastigotes, Tulahuen 2 strain
The experiment is described as follows: Inhibition of T. cruzi cruzipain (Z-Phe-Arg-AMC fluorogenic substrate). It counts as biochemical. As to conditions: percentage of enzymatic inhibition at 100 μM; read-out: Cruzipain % Inhib100. On the procedure: Initially, we tested the dithioles as inhibitors of the protease cruzipain from T. cruzi at a concentration of 100 μM.
Cruzipain was purified to homogeneity from epimastigotes of the Tulahuen 2 strain by ConA-Sepharose affinity chromatography, as previously described. Cruzipain (2.5 μM ε = 58,285 M^−1·cm^−1) was incubated in 50 mM acetate buffer pH 5.5 with 50 mM DTT and 100 μM inhibitor was added, shaking the solution for 15 min at 27 °C. The derivatives were added diluted in DMSO, and the controls contained the same solvent concentration. The concentration of DMSO never exceeded 1% in the reaction medium. E-64 was used as a positive control of inhibition. Then, the fluorogenic substrate Z-Phe-Arg-AMC (100 μM) was added and the fluorescence was measured during 10 min at intervals of 3 s (excitation at 350 nm and emission at 460 nm) using a Varioskan Flash Spectrophotometer. From the slope of the negative control, we calculated the total (100%) enzyme activity, while the slopes obtained in the presence of the compounds yielded the percentage of remaining enzyme activity. The percentage of enzyme inhibition was determined as […]. The experiments were done in duplicate.

Experiment [5] addresses T2, cruzipain. Described as above. It counts as biochemical. As to conditions: isolated enzyme.
For experiment [6], the system named is T. cruzi cells (Y strain, DTU Tc II). The experiment in a line: 1H-NMR study of the excreted metabolites. It counts as cell-based, Trypanosoma cruzi. On the procedure: To gain insight into the changes promoted by the active 3-propylidene[1,2]dithioles 2 and 14 in some biochemical pathways, the metabolites excreted by the parasite using ^1H-NMR spectroscopy were analyzed. Changes in the excreted metabolites by T. cruzi Y strain (DTU Tc II, [24]), when the parasite cells were exposed to a bioactive compound, could be indicative of the modification of the biochemical pathway(s) by the agents. Spectra of the cell-free milieu of treated parasites were compared with those of the untreated T. cruzi-free milieu as the control. We focused mainly on the changes of excreted salts of the carboxylic acids, lactate (Lac), acetate (Ace), pyruvate (Pyr), and succinate (Succ) and the amino acids, alanine (Ala) and glycine (Gly), among the most relevant modified metabolites.
For the ^1H-NMR spectroscopic studies, T. cruzi cells (Y strain, DTU Tc II) treated for 2 days, with each studied compound at concentrations corresponding to 2 × IC50 values (5 mL) were centrifuged at 1500× g for 10 min at 4 °C. The pellet was discarded, and the parasite-free supernatant was stored at −20 °C until use. Before measuring, DMF (0.1 mL, 10 mM) as the internal standard and D2O (0.1 mL) were added to the supernatant (0.3 mL). ^1H-NMR experiments were recorded at 20 °C on a Bruker Advance DPX-400 spectrometer (Bruker), operating at 400.132 MHz, with a 5 mm broadband inverse geometry probe. The acquisition parameters included: 90° pulse (zgpr, advance-version v 1.7.10.2, 1D sequence with f1 presaturation), 128 scans, and spectral width of 14.983 ppm. The acquisition time was 1.3664 s. Signal intensities were calculated by performing appropriate baseline corrections and then integrating the area under each of the resonances using MestRe-C NMR software. Spectra were analyzed using the Topspin 1.3 software package. The spectra were registered with water suppression in 5 mm NMR (Aldrich, St. Louis, MO, USA) sample tubes. The chemical displacements used to identify the respective metabolites were previously confirmed by adding each analyzed metabolite to the studied supernatant, as well as by the study of a control solution with 4 μg/mL of each metabolite in buffer (phosphate, pH = 7.4). Each run was done at least in triplicate and the Student t test was used to analyze the significance of the changes. […]

Experiment [7] relates to epimastigotes of T. cruzi (Tulahuen 2 strain). More on the design: method as in PMID 25512408. As to conditions: reference trypanosomicidal drugs; read-out: IC50 against epimastigotes of T. cruzi (reference drugs); cited from earlier work.
In experiment [8] the test system is membrane sterol biosynthesis in epimastigotes of Y strain of T. cruzi. The experiment in a line: Inhibition of membrane sterol biosynthesis (qualitative TLC). It counts as cell-based, Trypanosoma cruzi. As to conditions: compounds at their IC50, 72 h, 28 °C, compared to control. On the procedure:
To do so, we analyzed the accumulation or depletion of some intermediates or final products of this biochemical pathway. Qualitative analyses were performed by thin layer chromatography (TLC).
The parasites, epimastigotes of Y strain of T. cruzi (DTU Tc II), were grown in 6 mL of BHT milieu in culture bottles. […] A negative control was performed with parasites in the absence of compounds. […] The extraction of membrane sterols was performed on completion of the incubation. For this purpose, the content of the culture bottle was centrifuged at 3000 rpm for 10 min, the supernatant was discarded and the pellet was suspended in sodium phosphate buffer solution (6 mL, 0.05 M, pH 7.4). Then it was centrifuged again at 3000 rpm for 10 min and the supernatant was discarded. The resulting pellet was resuspended in a chloroform/methanol (2:1) mixture (5 mL) and the suspension was kept at 4 °C for 12 h. Then, a saturated NaCl solution (5 mL) was added and the mixture extracted once with chloroform (3 mL) and once with hexane (3 mL) with care to avoid taking any aqueous phase. The extracted volume was applied to a silica gel TLC plate. Chromatography was performed eluting with hexane, two runs to identify squalene, and once with hexane/EtOAc (8:2) for ergosterol. […] Also, controls and commercial samples of ergosterol, lanosterol, cholesterol and squalene were run on the TLC plate. […]

In the next experiment the test system is T. cruzi. As to conditions: positive control of the sterol study; source not given; read-out: IC50 of terbinafine; cited from earlier work.
Setting [9] is: IC50 × 2, 2 days, DMF internal standard.

T1 sequence (P52270 whole entry): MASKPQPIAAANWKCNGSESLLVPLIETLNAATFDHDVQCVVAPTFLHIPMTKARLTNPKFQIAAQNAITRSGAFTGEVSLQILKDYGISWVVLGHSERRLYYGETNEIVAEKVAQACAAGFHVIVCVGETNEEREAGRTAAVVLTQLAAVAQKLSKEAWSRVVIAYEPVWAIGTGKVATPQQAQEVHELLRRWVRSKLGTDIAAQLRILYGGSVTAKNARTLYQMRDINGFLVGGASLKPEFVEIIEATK
T2 sequence (P25779 123-467): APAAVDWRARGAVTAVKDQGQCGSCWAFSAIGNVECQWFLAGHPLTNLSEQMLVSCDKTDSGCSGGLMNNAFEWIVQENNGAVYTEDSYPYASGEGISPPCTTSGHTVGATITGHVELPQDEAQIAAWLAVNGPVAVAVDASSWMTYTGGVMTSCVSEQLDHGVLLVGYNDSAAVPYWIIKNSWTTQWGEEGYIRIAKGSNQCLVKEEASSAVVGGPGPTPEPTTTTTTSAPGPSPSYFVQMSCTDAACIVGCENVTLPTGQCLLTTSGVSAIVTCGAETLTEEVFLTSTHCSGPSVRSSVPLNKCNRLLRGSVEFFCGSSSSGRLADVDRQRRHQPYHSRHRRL

Turning to `COc1ccc(C2=C/C(=C(\SCC(C)=O)C(C)=O)SS2)cc1` [Derivative 15], the IC50 in experiment [1] was 5.9 ± 1.2 µM; in experiment [2] it was < 24 µM; against cruzipain [5] it was 15.1 ± 2.5 µM. Further, in [1] (macrophages (J774.1) vs T. cruzi epimastigotes), the “SI (selectivity index)” value was <4.1. Also, the inhibition at 25 µM in experiment [3] was 62 ± 3%. The inhibition at 200 µM in experiment [3] was found to be 86%. At cruzipain [4], the inhibition at 100 µM was found to be 85.4 ± 0.2%.
Turning to `O=C(CS/C(C(=O)c1ccc2ccccc2c1)=C1\C=C(c2ccc(O)cc2)SS1)c1ccc2ccccc2c1` [Derivative 14], the IC50 in experiment [1] is 4.9 ± 1.1 µM. Besides, the IC50 in experiment [2] came to 63 ± 2 µM. Besides, in experiment [3], the inhibition at 25 µM worked out at 38 ± 3.5% and the inhibition at 200 µM was found to be 70%. Further, the inhibition at 100 µM on cruzipain [4] turned out to be 66.5 ± 0.3%. For the same compound, in [6] (setting [9]), the “Concentration of excreted Ace” value came to 26.41 ± 1.44, the “Concentration of excreted Ala” value was 20.65 ± 1.27, the “Concentration of excreted Gly” value is given as 2.48 ± 0.14 and the “Concentration of excreted Lac” value was 10.41 ± 0.58. Also, in [6] (setting [9]), the “Concentration of excreted Pyr” value worked out at 9.47 ± 0.53 and the “Concentration of excreted Succ” value is 7.34 ± 0.65. In experiment [6] (IC50 × 2, p < 0.05 Student's t-test), the “Change of excreted metabolites compared to the control” value is recorded as “did not modify the excreted catabolites”.
For the compound `O=C(Cn1ccnc1[N+](=O)[O-])NCc1ccccc1` [Bnz, benznidazole], in [7], the IC50 was 7 ± 1 µM.
Turning to `CC1CS(=O)(=O)CCN1/N=C/c1ccc([N+](=O)[O-])o1` (centres unmarked) [Nfx, nifurtimox], the IC50 in experiment [7] was 8 ± 1 µM.
Take `CN(C/C=C/C#CC(C)(C)C)Cc1cccc2ccccc12` [terbinafine, reference compound]: in experiment [8], the “Changes in membrane sterols and intermediates (squalene, ergosterol)” value is “accumulate squalene and deplete ergosterol”. The IC50 with T. cruzi is 44.7 µM.
